Columns and labels:
[1] = high concentrations up to 1 mM; cited from earlier work
HT-29 = experiment: Cell proliferation analysis (MTT); type: cell-based; conditions: Homo sapiens, 48 h, read-out: Anti-proliferative activity IC50, HT-29
Experimental: (§1) All tumor cell lines in the current research were grown in a certain growth medium containing 10% FBS and 1% (v/v/v) penicillin–streptomycin–amphotericin at 37 °C in 5% CO2. Cells were seeded into 96-well plates at a density of 8 × 10^3 cells per well for tumor adherent cells and 2 × 10^4 cells per well for tumor-suspended cells in a final volume of 100 μL. After 12 h, 100 μL of various concentrations of compounds was added to each and incubated for 48 h. A 0.5% MTT solution was added per well before the intermixture was incubated for another 4 h, and formazan formed from MTT was extracted by adding […] of DMSO rocking for 15 min. Absorbance was measured at 570 nm using a Spark multimode microplate from Tecan. The IC50 values were calculated according to the inhibition ratios.

Hela = experiment: Cell proliferation analysis (MTT); type: cell-based; conditions: Homo sapiens, 48 h, read-out: Anti-proliferative activity IC50, Hela
Experimental: as §1

MDA-MB-231 = experiment: Cell proliferation analysis (MTT); type: cell-based; conditions: Homo sapiens, 48 h, read-out: Anti-proliferative activity IC50, MDA-MB-231
Experimental: as §1

RPMI-8266 = experiment: Cell proliferation analysis (MTT); type: cell-based; conditions: RPMI8266, 48 h, read-out: Anti-proliferative activity IC50, RPMI-8266
Experimental: as §1

ARP-1 = experiment: Cell proliferation analysis (MTT); type: cell-based; conditions: 48 h, read-out: Anti-proliferative activity IC50, ARP-1
Experimental: as §1

MM.1S = experiment: Cell proliferation analysis (MTT); type: cell-based; conditions: Homo sapiens, MM1.S, 48 h, read-out: Anti-proliferative activity IC50, MM.1S
Experimental: as §1

PC3 = experiment: Cell proliferation analysis (MTT); type: cell-based; conditions: Homo sapiens, PC-3, 48 h, read-out: Anti-proliferative activity IC50, PC3
Experimental: as §1

U251 = experiment: Cell proliferation analysis (MTT); type: cell-based; conditions: Homo sapiens, U-251, 48 h, read-out: Anti-proliferative activity IC50, U251
Experimental: as §1

A2780 = experiment: Cell proliferation analysis (MTT); type: cell-based; conditions: Homo sapiens, 48 h, read-out: Anti-proliferative activity IC50, A2780
Experimental: as §1

KG1 = experiment: Cell proliferation analysis (MTT); type: cell-based; conditions: Homo sapiens, KG-1, 48 h, read-out: Anti-proliferative activity IC50, KG1
Experimental: as §1

SP2 = experiment: Cell proliferation analysis (MTT); type: cell-based; conditions: 48 h, read-out: Anti-proliferative activity IC50, SP2
Experimental: as §1

HEL = experiment: Cell proliferation analysis (MTT); type: cell-based; conditions: Homo sapiens, 48 h, read-out: Anti-proliferative activity IC50, HEL
Experimental: as §1

U266 = experiment: Cell proliferation analysis (MTT); type: cell-based; conditions: Homo sapiens, U-266, 48 h, read-out: Anti-proliferative activity IC50, U266
Experimental: as §1

HCT116 = experiment: Cell proliferation analysis (MTT); type: cell-based; conditions: Homo sapiens, HCT-116, 48 h, read-out: Anti-proliferative activity IC50, HCT116
Experimental: as §1

[2] = system: subcutaneous P3x63Ag8.653 tumor; experiment: In vivo P3x63Ag8.653 tumor transplant model; set-up: species or system mice; conditions: 0.05 mmol/kg oral, two weeks
Experimental: The animal experiments were conducted under the guidelines of the “Regulations for the Administration of Affairs Concerning Experimental Animals” (revised 2017, State Council No. 676). For the P3x63Ag8.653 tumor development, male mice were subcutaneously injected with 200 μL murine P3x63Ag8.653 cells with a density of 1 × 10^7/mL. On the eighth day after injection, the transplanted mice were randomized into treatment and control groups. The tested compounds were administrated orally at the prescribed dose biweekly for two weeks. After two weeks of administration, mice were executed, and the tumor tissues were dissected and weighed. T/C was calculated according to the following formula: T/C = the mean RTV of the treated group/the mean RTV of the control group, where RTV is the relative tumor volume = Vt/V0 (Vt, the tumor volume measured at the end of treatment; V0, the tumor volume measured at the beginning of treatment).

[3] = biological target: T1, chymotrypsin-like (CT-L) activity of the 20S proteasome (Homo sapiens, UniProt P20618+P28074); experiment: 20S proteasome inhibition assay (Proteasome-Glo Chymotrypsin-Like); type: biochemical; conditions: n ≥ 3, SD <20% of the mean, read-out: IC50 toward Chymotrypsin-like (CT-L)
T1 construct: purchased R&D systems, Minneapolis, MN, USA
Experimental: The 20S proteasome inhibition assay was performed using the Proteasome-Glo™ Chymotrypsin-Like Assay kit (Promega, Alexandria, NSW, Australia). Suc-LLVY-aminoluciferin is a substate that can be cleaved by the 20S proteasome, release the […] (aminoluciferin) and allow the luciferase reaction to produce light. Gradient concentration of tested compounds and the purified 20S proteasome enzyme (R&D systems, Minneapolis, MN, USA) were successively added into a transparent 96-well plate and mixed thoroughly. Then, 50 µL of a […] reagent was added. Gently mix contents with a plate shaker at 300 to 500 rpm for 30 s. Incubate at room temperature for an hour. The luminescence was recorded via the Tecan Spark multimode microplate.

HEK293 = experiment: Cell proliferation analysis (MTT), normal cells; type: cell-based; conditions: Homo sapiens, non-malignant cell line, 48 h, read-out: Anti-proliferative activity IC50, HEK293
Experimental: as §1

HL-7702 = experiment: Cell proliferation analysis (MTT), normal cells; type: cell-based; conditions: Homo sapiens, L02, non-malignant cell line, 48 h, read-out: Anti-proliferative activity IC50, HL-7702
Experimental: as §1

P3x63Ag8.653 = experiment: Cell proliferation analysis (MTT); type: cell-based, murine; conditions: Mus musculus, 48 h, read-out: Anti-proliferative activity IC50, P3x63Ag8.653
Experimental: as §1

IC50 (HT-29): > 200 µM | IC50 (Hela): > 200 µM | IC50 (MDA-MB-231): > 200 µM | IC50 (MM.1S): > 200 µM | IC50 (PC3): > 200 µM | IC50 (U251): > 200 µM | IC50 (A2780): > 200 µM | IC50 (U266): > 200 µM | IC50 (HCT116): > 200 µM | IC50 [3]: > 10 µM
SMILES: CC(C)C[C@H](NC(=O)[C@@H](O)[C@H](N)Cc1ccccc1)C(=O)O [Ubenimex]
anti-proliferation activity [1]: not apparent | IC50 (RPMI-8266): > 200 µM | IC50 (ARP-1): > 200 µM | IC50 (KG1): > 200 µM | IC50 (SP2): > 200 µM | IC50 (HEL): > 200 µM | anti-tumor activity [2]: moderate anti-tumor activity | IC50 (HEK293): > 200 µM | IC50 (HL-7702): > 200 µM | IC50 (P3x63Ag8.653): > 200 µM
